Results as given in the supplement of paper PMC11451515.

How the values were obtained:
Details in all cases: 48 h
NOMO1 [1] = assay: cell viability relative to DMSO control; higher = less cytotoxic
Method in brief: (§1)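 Before seeding, each leukemia line was adapted for at least four passages in each medium. NOMO1 or SEM cells (500 cells/well) and P12-Ichikawa cells (1000 cells/well) went into 1536-well plates at 5 μl, then received library compounds in DMSO by pin dosing across 11 threefold concentrations, 47 μM to 0.79 nM. Readout was CellTiter-Glo One luminescence after 48 h at 37°C, and viability is given as a per-plate percentage of DMSO wells, with cell-free wells as background.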

P12-Ichikawa [2] = assay: as above
Method in brief: as §1

SEM cells [3] = assay: as above
Method in brief: as §1

SEM cells [4] = assay: AUC of viability dose-response curve (% viability x log10 dose units); higher = less sensitive
Method in brief: (§2)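 In 1536-well plates, leukemia cells adapted to each medium (500 or 1000 cells/well) were exposed for 48 h at 37°C to library compounds in DMSO across 11 threefold doses, 47 μM down to 0.79 nM. Viability was read by CellTiter-Glo One luminescence and normalised per plate to DMSO and cell-free wells. A four-parameter log-logistic fit over log10 doses was integrated by trapezoidal rule. This yielded the area under the curve, with over-full-viability curves scaled and quality-control failures dropped.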

NOMO1 [5] = assay: as above
Method in brief: as §2

P12-Ichikawa [6] = assay: as above
Method in brief: as §2

Nc1nnc(-c2cccc(Cl)c2Cl)c(N)n1
cell viability [%]
Details	NOMO1 [1]	P12-Ichikawa [2]	SEM cells [3]
HPLM + 10% dialyzed FBS, 0.000781 µM	95.9	87.5	80.7
HPLM + 10% dialyzed FBS, 0.00234 µM	89.7	105	80
HPLM + 10% dialyzed FBS, 0.00702 µM	97.6	104	98.9
HPLM + 10% dialyzed FBS, 0.0211 µM	33	10.7	21.9
HPLM + 10% dialyzed FBS, 0.0632 µM	107	107	96.6
HPLM + 10% dialyzed FBS, 0.19 µM	113	106	92.1
HPLM + 10% dialyzed FBS, 0.569 µM	112	99.7	96.5
HPLM + 10% dialyzed FBS, 1.71 µM	98.9	104	103
HPLM + 10% dialyzed FBS, 5.12 µM	121	102	105
HPLM + 10% dialyzed FBS, 15.4 µM	108	112	115
HPLM + 10% dialyzed FBS, 46.1 µM	115	102	92.4
RPMI 5 mM glucose + 10% FBS, 0.000781 µM	89.2	90.2	71.7
RPMI 5 mM glucose + 10% FBS, 0.00234 µM	86.6	98.1	74.5
RPMI 5 mM glucose + 10% FBS, 0.00702 µM	93.5	95.8	85.2
RPMI 5 mM glucose + 10% FBS, 0.0211 µM	23.7	11.9	13.1
RPMI 5 mM glucose + 10% FBS, 0.0632 µM	112	100	97.6
RPMI 5 mM glucose + 10% FBS, 0.19 µM	96.5	106	96.7
RPMI 5 mM glucose + 10% FBS, 0.569 µM	88.4	99.6	104
RPMI 5 mM glucose + 10% FBS, 1.71 µM	96.1	90.5	99.1
RPMI 5 mM glucose + 10% FBS, 5.12 µM	102	102	99.9
RPMI 5 mM glucose + 10% FBS, 15.4 µM	95.2	102	90.4
RPMI 5 mM glucose + 10% FBS, 46.1 µM	102	91	89.7
RPMI 5 mM glucose + 10% dialyzed FBS, 0.000781 µM	76	83.8	88.5
RPMI 5 mM glucose + 10% dialyzed FBS, 0.00234 µM	89.2	88.4	88.1
RPMI 5 mM glucose + 10% dialyzed FBS, 0.00702 µM	94	87.7	88.2
RPMI 5 mM glucose + 10% dialyzed FBS, 0.0211 µM	43.7	29.6	16.1
RPMI 5 mM glucose + 10% dialyzed FBS, 0.0632 µM	96.2	95	92.1
RPMI 5 mM glucose + 10% dialyzed FBS, 0.19 µM	93.1	97.7	97.5
RPMI 5 mM glucose + 10% dialyzed FBS, 0.569 µM	99	99.4	103
RPMI 5 mM glucose + 10% dialyzed FBS, 1.71 µM	108	97.5	101
RPMI 5 mM glucose + 10% dialyzed FBS, 5.12 µM	103	98.7	101
RPMI 5 mM glucose + 10% dialyzed FBS, 15.4 µM	98.6	105	107
RPMI 5 mM glucose + 10% dialyzed FBS, 46.1 µM	99.1	92.1	113

SEM cells [4]
Details	AUC of viability dose-response curve
HPLM + 10% dialyzed FBS	425
RPMI 5 mM glucose + 10% FBS	402
RPMI 5 mM glucose + 10% dialyzed FBS	418

CC1(C)CNc2cc(NC(=O)c3cccnc3NCc3ccncc3)ccc21
cell viability [%]
Details	NOMO1 [1]	P12-Ichikawa [2]	SEM cells [3]
HPLM + 10% dialyzed FBS, 0.000781 µM	131	120	118
HPLM + 10% dialyzed FBS, 0.00234 µM	118	115	118
HPLM + 10% dialyzed FBS, 0.00702 µM	112	125	121
HPLM + 10% dialyzed FBS, 0.0211 µM	137	121	112
HPLM + 10% dialyzed FBS, 0.0632 µM	108	128	102
HPLM + 10% dialyzed FBS, 0.19 µM	105	116	104
HPLM + 10% dialyzed FBS, 0.569 µM	112	117	92.4
HPLM + 10% dialyzed FBS, 1.71 µM	113	118	101
HPLM + 10% dialyzed FBS, 5.12 µM	109	112	96.3
HPLM + 10% dialyzed FBS, 15.4 µM	94.6	110	93
HPLM + 10% dialyzed FBS, 46.1 µM	91.8	101	13.2
RPMI 5 mM glucose + 10% FBS, 0.000781 µM	115	127	85.4
RPMI 5 mM glucose + 10% FBS, 0.00234 µM	119	117	70.9
RPMI 5 mM glucose + 10% FBS, 0.00702 µM	134	122	87.7
RPMI 5 mM glucose + 10% FBS, 0.0211 µM	124	116	79.4
RPMI 5 mM glucose + 10% FBS, 0.0632 µM	120	115	79.7
RPMI 5 mM glucose + 10% FBS, 0.19 µM	118	106	79.4
RPMI 5 mM glucose + 10% FBS, 0.569 µM	124	119	73.9
RPMI 5 mM glucose + 10% FBS, 1.71 µM	120	117	75.4
RPMI 5 mM glucose + 10% FBS, 5.12 µM	103	111	78.1
RPMI 5 mM glucose + 10% FBS, 15.4 µM	120	105	70.1
RPMI 5 mM glucose + 10% FBS, 46.1 µM	118	107	12.9
RPMI 5 mM glucose + 10% dialyzed FBS, 0.000781 µM	116	121	111
RPMI 5 mM glucose + 10% dialyzed FBS, 0.00234 µM	110	124	112
RPMI 5 mM glucose + 10% dialyzed FBS, 0.00702 µM	120	128	105
RPMI 5 mM glucose + 10% dialyzed FBS, 0.0211 µM	112	121	128
RPMI 5 mM glucose + 10% dialyzed FBS, 0.0632 µM	107	120	125
RPMI 5 mM glucose + 10% dialyzed FBS, 0.19 µM	96.3	120	100
RPMI 5 mM glucose + 10% dialyzed FBS, 0.569 µM	114	123	102
RPMI 5 mM glucose + 10% dialyzed FBS, 1.71 µM	115	112	91.1
RPMI 5 mM glucose + 10% dialyzed FBS, 5.12 µM	113	113	79.2
RPMI 5 mM glucose + 10% dialyzed FBS, 15.4 µM	105	113	90.6
RPMI 5 mM glucose + 10% dialyzed FBS, 46.1 µM	115	96.1	7.67

AUC of viability dose-response curve
Details	HPLM + 10% dialyzed FBS	RPMI 5 mM glucose + 10% FBS	RPMI 5 mM glucose + 10% dialyzed FBS
NOMO1 [5]	419	468	470
P12-Ichikawa [6]	461	446	455

COc1ccc(Nc2nccc(NCCO)n2)cc1
cell viability [%]
Details	NOMO1 [1]	P12-Ichikawa [2]	SEM cells [3]
HPLM + 10% dialyzed FBS, 0.000781 µM	75.3	73.7	61.7
HPLM + 10% dialyzed FBS, 0.00234 µM	86.5	83.2	67.9
HPLM + 10% dialyzed FBS, 0.00702 µM	84.9	82.1	61.4
HPLM + 10% dialyzed FBS, 0.0211 µM	97.5	84.8	75.8
HPLM + 10% dialyzed FBS, 0.0632 µM	86	88.2	81.4
HPLM + 10% dialyzed FBS, 0.19 µM	96.7	85.2	69.6
HPLM + 10% dialyzed FBS, 0.569 µM	88.8	81.9	63.7
HPLM + 10% dialyzed FBS, 1.71 µM	99.5	81.5	78.6
HPLM + 10% dialyzed FBS, 5.12 µM	74.5	76.7	64
HPLM + 10% dialyzed FBS, 15.4 µM	84.9	89.5	75.4
HPLM + 10% dialyzed FBS, 46.1 µM	22.7	80.8	64.7
RPMI 5 mM glucose + 10% FBS, 0.000781 µM	72.7	72	75.9
RPMI 5 mM glucose + 10% FBS, 0.00234 µM	86.4	81.3	80.1
RPMI 5 mM glucose + 10% FBS, 0.00702 µM	73.6	79.4	78
RPMI 5 mM glucose + 10% FBS, 0.0211 µM	83.5	86.8	87.4
RPMI 5 mM glucose + 10% FBS, 0.0632 µM	79.6	89.8	77.1
RPMI 5 mM glucose + 10% FBS, 0.19 µM	79.8	81.5	79
RPMI 5 mM glucose + 10% FBS, 0.569 µM	79.6	76.8	78.3
RPMI 5 mM glucose + 10% FBS, 1.71 µM	79	73.6	85.1
RPMI 5 mM glucose + 10% FBS, 5.12 µM	15.8	79	42.1
RPMI 5 mM glucose + 10% FBS, 15.4 µM	81.3	85	91.5
RPMI 5 mM glucose + 10% FBS, 46.1 µM	91.8	85.3	92.9
RPMI 5 mM glucose + 10% dialyzed FBS, 0.000781 µM	61.9	69	64.5
RPMI 5 mM glucose + 10% dialyzed FBS, 0.00234 µM	63.7	76.7	65.3
RPMI 5 mM glucose + 10% dialyzed FBS, 0.00702 µM	69.4	78	73.3
RPMI 5 mM glucose + 10% dialyzed FBS, 0.0211 µM	73.9	81.5	95
RPMI 5 mM glucose + 10% dialyzed FBS, 0.0632 µM	73.8	78.9	91.8
RPMI 5 mM glucose + 10% dialyzed FBS, 0.19 µM	76.9	81.7	78.6
RPMI 5 mM glucose + 10% dialyzed FBS, 0.569 µM	68.9	79.9	81.4
RPMI 5 mM glucose + 10% dialyzed FBS, 1.71 µM	75.5	81.9	74.7
RPMI 5 mM glucose + 10% dialyzed FBS, 5.12 µM	23.6	78.4	74.1
RPMI 5 mM glucose + 10% dialyzed FBS, 15.4 µM	76.9	79.9	92.5
RPMI 5 mM glucose + 10% dialyzed FBS, 46.1 µM	76.2	77.9	68.2

AUC of viability dose-response curve
Details	HPLM + 10% dialyzed FBS	RPMI 5 mM glucose + 10% FBS	RPMI 5 mM glucose + 10% dialyzed FBS
P12-Ichikawa [6]	395	386	377
SEM cells [4]	331	376	375
